# Laboratory results published in patent US20250367191A1, “TREATMENT OF MITOCHONDRIAL DISEASES WITH A CNS-PENETRANT SGC STIMULATOR ZAGOCIGUAT” (Tisento Therapeutics Inc., priority 2022, published 2025).
# What was measured:
# [1] = Clinical trial in patients with stable schizophrenia: PK and safety; type: in vivo, human; conditions: total oral daily dosages up to 60 mg per day
# [2] = tested on: participants diagnosed with MELAS; assay: MELAS study: inflammatory biomarkers in plasma (InflammationMAP panel); type: in vivo, human
# Protocol: (§1) Plasma and serum samples for biomarkers were collected from each participant. These biomarkers tested the target engagement of Compound I as well as the impact of the compound on disease. Plasma or serum samples were analyzed for concentrations of growth differentiation factor 15 (GDF-15), lactate, pyruvate, alanine, neurofilament light chain (NFL), vascular cell adhesion molecule 1, interleukin-1beta, asymmetric dimethylarginine (ADMA), L arginine, and other biomarkers relevant to the pathophysiology of mitochondrial disease, as well as their response to Compound I.
# (§2) This change was observed across all brain regions of interest. Effect size throughout this disclosure is defined as the means change from baseline in a particular parameter that is being measured, divided by the standard deviation. Effect sizes closer to 1 or −1 (positive or negative dependent on the direction of movement for the specific parameter, i.e. +0.8 to +1.0 or −0.8 to −1.0) are usually considered large. Effect sizes between 0.5 and 0.8 or −0.5 and −0.8 (positive or negative dependent on the direction of movement for the specific parameter) are usually considered moderate. Effect sizes closer to below 0.5 or −0.5 (positive or negative dependent on the direction of movement for the specific parameter) are usually considered small.
# 26 out of the 40 (65%) inflammatory biomarkers assessed in plasma as part of the InflammationMAP® panel were reduced with effect sizes less or equal than −0.3. Only 3 of the 40 (7.5%) inflammatory biomarkers assessed in plasma increased with an effect size equal or more than 0.3. The changes in concentrations as well as the effect sizes for inflammatory markers measured in plasma are summarized in the 3 tables below (Table 1: large effect size; Table 2: moderate effect size and Table 3: small effect size). The concentration values in Tables 1-3 were measured in the standard units for each of these laboratory measures as known in the art. Many of these biomarkers tended to increase again back to baseline levels after treatment with Compound I was stopped, supporting a drug effect.
# [3] = tested on: participants diagnosed with MELAS; assay: MELAS study: plasma biomarkers of mitochondrial dysfunction (lactate, GDF-15, FGF-21); type: in vivo, human
# Protocol: as §1, §2
# [4] = tested on: mice; conditions: mice pretreated, compared with vehicle-treated mice; cited from earlier work
# [5] = plasma, trend towards reduction
structure (smiles),measurement,setting,value
"Fc1ccccc1Cc1nc(-c2nc(C(F)(F)F)n[nH]2)cn2ccnc12 [Compound I, zagociguat]","PK, dose proportionality",[1],proportional PK
same,safety and tolerability,[1],safe and well tolerated
same,"Alpha-1-Antitrypsin, Effect size","[2]; 15 mg QD, day 29 vs baseline",−0.4
same,"Alpha-1-Antitrypsin, change in concentration, Mean","[2]; 15 mg QD, day 29 vs baseline",−0.2
same,"Alpha-2-Macroglobulin, Effect size","[2]; 15 mg QD, day 29 vs baseline",−0.3
same,"Alpha-2-Macroglobulin, change in concentration, Mean","[2]; 15 mg QD, day 29 vs baseline",−0.2
same,"Beta-2-Microglobulin, Effect size","[2]; 15 mg QD, day 29 vs baseline",−1.0
same,"Beta-2-Microglobulin, change in concentration, Mean","[2]; 15 mg QD, day 29 vs baseline",−0.5
same,"Brain-Derived Neurotrophic Factor, Effect size","[2]; 15 mg QD, day 29 vs baseline",−0.5
same,"Brain-Derived Neurotrophic Factor, change in concentration, Mean","[2]; 15 mg QD, day 29 vs baseline",−2.1
same,"C-Reactive Protein, Effect size","[2]; 15 mg QD, day 29 vs baseline",−0.6
same,"C-Reactive Protein, change in concentration, Mean","[2]; 15 mg QD, day 29 vs baseline",−3.4
same,"EN-RAGE, Effect size","[2]; 15 mg QD, day 29 vs baseline",−0.4
same,"EN-RAGE, change in concentration, Mean","[2]; 15 mg QD, day 29 vs baseline",−28.4
same,"Eotaxin-1, Effect size","[2]; 15 mg QD, day 29 vs baseline",−0.4
same,"Eotaxin-1, change in concentration, Mean","[2]; 15 mg QD, day 29 vs baseline",−10.1
same,"Factor VII, Effect size","[2]; 15 mg QD, day 29 vs baseline",−0.4
same,"Factor VII, change in concentration, Mean","[2]; 15 mg QD, day 29 vs baseline",−87.4
same,"Ferritin, Effect size","[2]; 15 mg QD, day 29 vs baseline",−0.6
same,"Ferritin, change in concentration, Mean","[2]; 15 mg QD, day 29 vs baseline",−21.4
same,"Fibrinogen, Effect size","[2]; 15 mg QD, day 29 vs baseline",−0.4
same,"Fibrinogen, change in concentration, Mean","[2]; 15 mg QD, day 29 vs baseline",−1.4
same,"Granulocyte-Macrophage Colony-Stimulating Factor, Effect size","[2]; 15 mg QD, day 29 vs baseline",−0.4
same,"Granulocyte-Macrophage Colony-Stimulating Factor, change in concentration, Mean","[2]; 15 mg QD, day 29 vs baseline",−13.6
same,"Immunoglobulin A, Effect size","[2]; 15 mg QD, day 29 vs baseline",−0.5
same,"Immunoglobulin A, change in concentration, Mean","[2]; 15 mg QD, day 29 vs baseline",−0.4
same,"Immunoglobulin M, Effect size","[2]; 15 mg QD, day 29 vs baseline",−0.6
same,"Immunoglobulin M, change in concentration, Mean","[2]; 15 mg QD, day 29 vs baseline",−0.4
same,"Intercellular Adhesion Molecule 1, Effect size","[2]; 15 mg QD, day 29 vs baseline",−0.3
same,"Intercellular Adhesion Molecule 1, change in concentration, Mean","[2]; 15 mg QD, day 29 vs baseline",−12.1
same,"Interleukin-10 (IL-10), Effect size","[2]; 15 mg QD, day 29 vs baseline",0.4
same,"Interleukin-10 (IL-10), change in concentration, Mean","[2]; 15 mg QD, day 29 vs baseline",0.3
same,"Interleukin-17 (IL-17), Effect size","[2]; 15 mg QD, day 29 vs baseline",0.5
same,"Interleukin-17 (IL-17), change in concentration, Mean","[2]; 15 mg QD, day 29 vs baseline",0.03
same,"Interleukin-18, Effect size","[2]; 15 mg QD, day 29 vs baseline",−0.4
same,"Interleukin-18, change in concentration, Mean","[2]; 15 mg QD, day 29 vs baseline",−25.6
same,"Matrix Metalloproteinase-9 (MMP-9), Effect size","[2]; 15 mg QD, day 29 vs baseline",0.4
same,"Matrix Metalloproteinase-9 (MMP-9), change in concentration, Mean","[2]; 15 mg QD, day 29 vs baseline",37.3
same,"Myoglobin, Effect size","[2]; 15 mg QD, day 29 vs baseline",−0.4
same,"Myoglobin, change in concentration, Mean","[2]; 15 mg QD, day 29 vs baseline",−32.5
same,"Plasminogen Activator Inhibitor 1, Effect size","[2]; 15 mg QD, day 29 vs baseline",−0.4
same,"Plasminogen Activator Inhibitor 1, change in concentration, Mean","[2]; 15 mg QD, day 29 vs baseline",−11.6
same,"Pulmonary and Activation-Regulated Chemokine, Effect size","[2]; 15 mg QD, day 29 vs baseline",−0.5
same,"Pulmonary and Activation-Regulated Chemokine, change in concentration, Mean","[2]; 15 mg QD, day 29 vs baseline",−15.3
same,"Serum Amyloid P-Component, Effect size","[2]; 15 mg QD, day 29 vs baseline",−0.9
same,"Serum Amyloid P-Component, change in concentration, Mean","[2]; 15 mg QD, day 29 vs baseline",−5.0
same,"T-Cell-Specific Protein RANTES, Effect size","[2]; 15 mg QD, day 29 vs baseline",−0.5
same,"T-Cell-Specific Protein RANTES, change in concentration, Mean","[2]; 15 mg QD, day 29 vs baseline",−7.2
same,"Thyroxine-Binding Globulin, Effect size","[2]; 15 mg QD, day 29 vs baseline",−0.7
same,"Thyroxine-Binding Globulin, change in concentration, Mean","[2]; 15 mg QD, day 29 vs baseline",−8.4
same,"Tumor necrosis factor receptor 2, Effect size","[2]; 15 mg QD, day 29 vs baseline",−0.7
same,"Tumor necrosis factor receptor 2, change in concentration, Mean","[2]; 15 mg QD, day 29 vs baseline",−1.8
same,"Vascular Cell Adhesion Molecule-1, Effect size","[2]; 15 mg QD, day 29 vs baseline",−0.6
same,"Vascular Cell Adhesion Molecule-1, change in concentration, Mean","[2]; 15 mg QD, day 29 vs baseline",−98.3
same,"Vascular Endothelial Growth Factor, Effect size","[2]; 15 mg QD, day 29 vs baseline",−0.3
same,"Vascular Endothelial Growth Factor, change in concentration, Mean","[2]; 15 mg QD, day 29 vs baseline",−7.0
same,"Vitamin D-Binding Protein, Effect size","[2]; 15 mg QD, day 29 vs baseline",−0.5
same,"Vitamin D-Binding Protein, change in concentration, Mean","[2]; 15 mg QD, day 29 vs baseline",−26.5
same,"von Willebrand Factor, Effect size","[2]; 15 mg QD, day 29 vs baseline",−0.4
same,"von Willebrand Factor, change in concentration, Mean","[2]; 15 mg QD, day 29 vs baseline",−123.4
same,inflammatory biomarkers increased with an effect size equal or more than 0.3 (3 of the 40),[2]; 40 biomarkers assessed,7.5%
same,inflammatory biomarkers reduced with effect sizes less or equal than −0.3 (26 out of the 40),[2]; 40 biomarkers assessed,65%
same,participants with reductions in GDF-15,[3]; in vivo,4 of 8
same,participants with reductions in lactate,[3]; in vivo,6 of 8
same,"reductions in GDF-15, greatest",[3]; participants with higher baseline concentrations,up to 39%
same,"FGF-21, effect size",[3]; [5],−0.2
same,"GDF-15, effect size",[3]; [5],−0.5
same,"Lactate concentrations, effect size",[3]; [5],−0.5
same,rotenone-induced astrogliosis,[4],lower rotenone-induced astrogliosis
